Measured values as given in patent publication US8481489B2, “GH secretagogues and uses thereof” (Theratechnologies Inc., priority 2003, dated 2013).
“And” between values parts separate entries of the source, which are not always exact repeats. Equal values may be shown once. Read-outs that look alike come from different tables or passages of the source. Marks after values point to notes of the source that are not given here.

Assays:
[1] = tested on: healthy subjects exhibiting age-related sleep impairment; assay: P300 event-related potential test, 7-day cross-over study; assay type: in vivo, human; settings: 1 mg daily for 7 days
Protocol: In this study, TH9507 was administered daily for 7 days in a cross-over design. […] Changes from Baseline to day 9 in the Pz amplitude of the Evoked Related Potential (P300) observed in the placebo and 1 mg group were as follows: Placebo, −15%; 1 mg, +55%, P=0.0114, as analyzed by an ANOVA model.

[2] = tested on: antigen-specific proliferative T cell response; assay type: in vivo, human; settings: 2 mg SC daily 8 weeks; week 0 to week 20; Panama, New Caledonia, Victoria
IGF-1 = assay: Circulating IGF-1 levels, 7-day administration in healthy middle-aged men; assay type: in vivo, human; settings: for IGF-1 increase over baseline values / IGF-1 levels reached: 7 days
Protocol: (§1) The study used a randomized, double-blind, placebo-controlled design and was conducted in healthy men, aged 50 to 60 years old. Subjects (8 per group) were injected S.C. once a day for 7 consecutive days with placebo, 0.5, 1 or 2 mg of TH9507. Circulating IGF-1 levels were measured on Days 1 to 7. The 12 hour GH response and TH9507 PK profile were determined on Day 1 and 7.

GH secretion = assay: GH response and other pituitary hormones, 7-day study in healthy men; assay type: in vivo, human; settings: dose dependent between 0.5 and 1 mg, similar at 1 and 2 mg
Protocol: as §1, with “The 12 hour GH response and TH9507 PK profile were determined on Day 1 and 7.” left out

[3] = TH9507 PK profile, 7-day study in healthy men; assay type: in vivo, human
Protocol: as §1

[4] = tested on: HIV-infected patients with abdominal fat accumulation; assay: Quality of life questionnaire (PLC), HIV lipodystrophy study; assay type: in vivo, human
Protocol: A health-related quality of life questionnaire (PLC, Quality of Life Profile for the Chronically Ill) was self-administered to 61 patients randomized to receive placebo or TH9507 at 1 or 2 mg s.c. daily. The PLC questionnaire included a general, non-specific part assessing 6 dimensions of global health as well as a disease specific part capturing impact of enlarged abdominal girth, abdominal bloating, tenseness and pain, as well as diarrhea, visible facial changes, visible changes in physical appearance, and the feeling of being recognized as an HIV positive person.
Study population included 54 men and 7 women. […] Slight changes were observed within the treated groups in the positive mood and social well-being scores but were not considered clinically significant.

[5] = tested on: HIV-infected patients with abdominal fat accumulation; settings: change from baseline, Week 12, mean (SD)
Protocol: (§2) Design: Randomized, placebo-controlled, multi-center, dose ranging (placebo, 1 mg or 2 mg SC QD), parallel group, 12-week study
(§3) At the baseline visit, anthropometric measurements were obtained. […] Biochemical parameters including insulin-like growth factor-I, glucose, insulin, lipid profile (cholesterol, HDL, LDL, triglyceride, non HDL and the ratio of cholesterol:HDL), free fatty acids, HbA1C, IGFBP-3, and bone markers (serum osteocalcin and NTX-1), CD4, viral load, and a pregnancy test for female subjects were determined in the fasting state. In addition, insulin and glucose response to a 75 gram standard glucose challenge were assessed and a quality of life questionnaire was administered.
(§4) Clinical laboratory testing was performed by a central lab. Serum IGF-1 was measured after acid-ethanol extraction using the Esoterix RIA kit (Esoterix Inc., Calabasas Hill, Calif.), with a sensitivity of 10 ng/mL. Intra- and inter-assay coefficients of variation were 4.6-20% and 9-10%, respectively. Serum IGFBP-3 was measured using the Esoterix RIA kit (Esoterix Inc., Calabasas Hill, Calif.) with a sensitivity of 0.3 mg/mL. Intra- and inter-assay coefficients of variation were 5.1-13% and 5.5-17%, respectively. HDL, LDL, total cholesterol, triglycerides and FFA were determined by enzymatic calorimetric assay. Glucose was measured by enzymatric test (Gluco-Quant®, Roche diagnostics, Indianapolis, Ind.). HbA1c was determined by chromatography.
(§5) Other endpoints included IGF-I, lipid parameters, glucose and insulin, CD4, viral load, bone markers, and quality of life. A sample size of 20 patients/group was planned to assess a statistically significant change of 10% or more in intra-group analyses. The planned dropout rate was 25% and therefore 60 patients were enrolled into the study. Baseline data are compared between the groups by F-test based on ANOVA for continuous variables and Chi-Square test for categorical variables. Change over time between groups is compared by ANOVA or the Chi-Square test. Where appropriate, data were rank transformed prior to analysis. Changes within each group are determined by t-test. The ITT (intent to treat) population is defined as all subjects who received at least one dose of the study treatment. Descriptive statistics and analyses for all efficacy and safety analyses are performed on the ITT population. End of study, 12 week, data are used to calculate changes in body composition. For biochemical indices, the last observation available is used to calculate change. Imputation for missing data is not performed. For body composition, end of study data are used to calculate change. Interim analyses were not performed. Results are mean (SD) unless otherwise noted. All statistical tests were performed with a two-sided Type I error level of 0.05.

[6] = in vivo
IGF-1 and IGFBP-3 = assay: Serum IGF-1 and IGFBP-3 (RIA), HIV lipodystrophy study; settings: change from baseline, Week 12, mean (SD)
Protocol: as §2, §3, §4, §5

[7] = tested on: HIV-infected patients with abdominal fat accumulation; assay: Bone turnover markers (osteocalcin, NTX), HIV lipodystrophy study; settings: for NTX, Δ / Osteocalcin, Δ: change from baseline, Week 12, mean (SD)
Protocol: as §2
Biochemical parameters including insulin-like growth factor-I, glucose, insulin, lipid profile (cholesterol, HDL, LDL, triglyceride, non HDL and the ratio of cholesterol:HDL), free fatty acids, HbA1C, IGFBP-3, and bone markers (serum osteocalcin and NTX-1), CD4, viral load, and a pregnancy test for female subjects were determined in the fasting state.
Clinical laboratory testing was performed by a central lab. […] NTX (N-terminal telopeptide of type I collagen; a bone resorption marker) was measured by ELISA using a commercially available kit (Osteomark™, Ostex International Inc., Seattle, Wash.). Osteocalcin was measured using a commercially available enzymatic immunoassay kit (Metra™ osteocalcin, Quidel Corporation, San Diego, Calif.). CD4 and viral load were performed by the individual site labs by routine methodology.

[8] = Adverse events, discontinuation and safety laboratory, HIV lipodystrophy study

In the case of `CC/C=C/CC(=O)N[C@@H](Cc1ccc(O)cc1)C(=O)N[C@@H](C)C(=O)N[C@@H](CC(=O)O)C(=O)N[C@@H](C)C(=O)N[C@H](C(=O)N[C@@H](Cc1ccccc1)C(=O)N[C@H](C(=O)N[C@@H](CC(N)=O)C(=O)N[C@@H](CO)C(=O)N[C@@H](Cc1ccc(O)cc1)C(=O)N[C@@H](CCCNC(=N)N)C(=O)N[C@@H](CCCCN)C(=O)N[C@H](C(=O)N[C@@H](CC(C)C)C(=O)NCC(=O)N[C@@H](CCC(N)=O)C(=O)N[C@@H](CC(C)C)C(=O)N[C@@H](CO)C(=O)N[C@@H](C)C(=O)N[C@@H](CCCNC(=N)N)C(=O)N[C@@H](CCCCN)C(=O)N[C@@H](CC(C)C)C(=O)N[C@@H](CC(C)C)C(=O)N[C@@H](CCC(N)=O)C(=O)N[C@@H](CC(=O)O)C(=O)N[C@H](C(=O)N[C@@H](CCSC)C(=O)N[C@@H](CO)C(=O)N[C@@H](CCCNC(=N)N)C(=O)N[C@@H](CCC(N)=O)C(=O)N[C@@H](CCC(N)=O)C(=O)NCC(=O)N[C@@H](CCC(=O)O)C(=O)N[C@@H](CO)C(=O)N[C@@H](CC(N)=O)C(=O)N[C@@H](CCC(N)=O)C(=O)N[C@@H](CCC(=O)O)C(=O)N[C@@H](CCCNC(=N)N)C(=O)NCC(=O)N[C@@H](C)C(=O)N[C@@H](CCCNC(=N)N)C(=O)N[C@@H](C)C(=O)N[C@@H](CCCNC(=N)N)C(=O)N[C@@H](CC(C)C)C(N)=O)[C@@H](C)CC)C(C)C)[C@@H](C)O)[C@@H](C)CC` [TH9507, (hexenoyl trans-3)hGRF(1-44)NH2], the “Change from Baseline to day 9 in the Pz amplitude of the Evoked Related Potential (P300)” value [1] is reported as “+55%”, the “mean AUC of antigen-specific proliferative T cell response vs placebo” value [2] is reported as “statistically higher” and the “IGF-1 increase over baseline values” (IGF-1; 0.5 mg SC once a day) is reported as 37%. The “time at which IGF-1 plateau was reached” value (IGF-1; 1 mg) was 4 days, the “IGF-1 increase over baseline values” (IGF-1; 1 mg SC once a day) was 89% and the IGF-1 levels reached (IGF-1; 1 mg SC once a day) was 286 ± 25 ng/mL. For the same compound, the “time at which IGF-1 plateau was reached” value (IGF-1; 2 mg) was 6 days, the “IGF-1 increase over baseline values” (IGF-1; 2 mg SC once a day) was 106% and the IGF-1 levels reached (IGF-1; 2 mg SC once a day) was 284 ± 55 ng/mL. The “IGF-1 levels of individual subjects” value (IGF-1; none of the subjects greater than this level) was no more than 400 ng/mL, the GH response (GH secretion) was “increased rapidly” and the “Cmax and AUC parameters” value ([3]; 0.5, 1, 2 mg SC) was “increased in function of the dose administered”. For the same compound, the half-life ([3]; male, human, in vivo, SC, healthy men) was 2 to 5 h, the “abdominal pain (PLC)” value ([4]; 1 mg only, P<0.05 vs baseline, NS vs placebo) was “Improvement” and the “bloating score change (PLC)” value ([4]; 1 mg s.c. daily) was −0.50. The “enlarged abdominal girth score change (PLC)” value ([4]; 1 mg s.c. daily) was −0.93, the “tenseness (PLC)” value ([4]; 1 mg, P=0.07 vs baseline, NS vs placebo) was “trend for improvement” and the “bloating score change (PLC)” value ([4]; 2 mg s.c. daily) was −0.69. The “enlarged abdominal girth score change (PLC)” value ([4]; 2 mg s.c. daily) was −1.19, the “subscales of the main portion of the PLC, between groups” value ([4]; 1 or 2 mg s.c. daily) was “No significant difference” and the “Fasting Glucose, Δ” value ([5]; 1 mg SC QD) was 0.1 (0.5) mmol/L. For the same compound, the “Fasting Insulin, Δ” value ([5]; 1 mg SC QD) was −2.8 (27.6) mUI/L, the “HBA1c, Δ” value ([5]; 1 mg SC QD) was 0.2 (0.4)* % and the “HOMA-R, Δ” value ([5]; 1 mg SC QD) was 0.8 (7.0). For the same compound, the “Two hour glucose, Δ” value ([5]; 1 mg SC QD) was 0.1 (2.1) mmol/L, the “Fasting Glucose, Δ” value ([5]; 2 mg SC QD) was 0.1 (0.7) mmol/L and the “Fasting Insulin, Δ” value ([5]; 2 mg SC QD) was 7.4 (6.2) mUI/L. For the same compound, the “HBA1c, Δ” value ([5]; 2 mg SC QD) was −0.0 (0.5) %, the “HOMA-R, Δ” value ([5]; 2 mg SC QD) was 2.0 (1.6) and the “Two hour glucose, Δ” value ([5]; 2 mg SC QD) was 0.7 (1.7) mmol/L. For the same compound, the Anti-TH9507 antibodies [6] was “not detected”, the “Blood pressure and heart rate” value [6] was “did not change” and the “Safety laboratory values, including hemoglobin, WBC, LFT's, creatinine” value [6] was “did not differ”. The “IGF-1, Δ” value (IGF-1 and IGFBP-3; 1 mg SC QD) was 87 (67) ng/mL and 87.5 (66.9)* ng/mL, the “IGFBP-3, Δ” value (IGF-1 and IGFBP-3; 1 mg SC QD) was 0.6 (0.7)* Mg/L and the “IGF-1, Δ” value (IGF-1 and IGFBP-3; 2 mg SC QD) was 123 (79) ng/mL and 122.6 (79.1)* ng/mL. For the same compound, the “IGFBP-3, Δ” value (IGF-1 and IGFBP-3; 2 mg SC QD) was 0.6 (0.5)* Mg/L, the “NTX, Δ” value ([7]; 1 mg SC QD) was 4.5 (24.9) nMBCE/mM and the “Osteocalcin, Δ” value ([7]; 1 mg SC QD) was 1.5 (4.8) ng/mL. The NTX ([7]; 2 mg SC QD, 12 weeks) was “no changes”, the Osteocalcin within group ([7]; 2 mg SC QD, 12 weeks) was “increased significantly” and the “NTX, Δ” value ([7]; 2 mg SC QD) was −0.5 (27.7) nMBCE/mM. The “Osteocalcin, Δ” value ([7]; 2 mg SC QD) was 3.0 (2.8)* ng/mL, the “Musculoskeletal AE's e.g. pain and arthralgias, subjects” value ([8]; 1 mg) was 26% and the “Musculoskeletal AE's e.g. pain and arthralgias, subjects” value ([8]; 2 mg) was 29%.
